What all share (assay type): functional
One assay concerns Bacillus spizizenii. As to the kind of experiment: Antimicrobial activity against Bacillus subtilis ATCC 6633 after 16 hrs by broth microdilution method. As to conditions: ATCC 6633, 16 h.
Assay [1] deals with Staphylococcus aureus. In words: Antimicrobial activity against methicillin-resistant Staphylococcus aureus 309-3 clinical isolate after 16 hrs by broth microdilution method. As to conditions: 309-3, 16 h.
In assay [2] the test system is Staphylococcus aureus. In words: Antimicrobial activity against Staphylococcus aureus ATCC 6538 after 16 hrs by broth microdilution method. As to conditions: ATCC 6538, 16 h.
The next assay deals with Pseudomonas aeruginosa. In words: Antimicrobial activity against Pseudomonas aeruginosa PAO1 after 16 hrs by broth microdilution method. Conditions: PAO1, 16 h.
The subject of assay [3] is Staphylococcus aureus. As to the kind of experiment: Antimicrobial activity against methicillin-resistant Staphylococcus aureus 309-6 clinical isolate after 16 hrs by broth microdilution method. Conditions: 309-6, 16 h.
Assay [4] concerns Staphylococcus aureus. As to the kind of experiment: Antimicrobial activity against methicillin-resistant Staphylococcus aureus 309-7 clinical isolate after 16 hrs by broth microdilution method. Conditions: 309-7, 16 h.
Assay [5] deals with Staphylococcus aureus. In words: Antimicrobial activity against methicillin-resistant Staphylococcus aureus 6281 clinical isolate after 16 hrs by broth microdilution method. As to conditions: Staphylococcus aureus, 6281, 16 h.
For assay [6], the system named is Enterococcus faecalis. In words: Antimicrobial activity against vancomycin-susceptible Enterococcus faecalis after 16 hrs by broth microdilution method.
A further assay relates to Klebsiella pneumoniae. In words: Antimicrobial activity against Klebsiella pneumoniae KP-249 clinical isolate after 16 hrs by broth microdilution method. Conditions: KP-249, 16 h.
In assay [7] the test system is Staphylococcus aureus. As to the kind of experiment: Antimicrobial activity against methicillin-resistant Staphylococcus aureus 6-42 clinical isolate after 16 hrs by broth microdilution method. Conditions: 6-42, 16 h.
In assay [8] the test system is Staphylococcus aureus. As to the kind of experiment: Antimicrobial activity against methicillin-resistant Staphylococcus aureus 309-4 clinical isolate after 16 hrs by broth microdilution method. As to conditions: 309-4, 16 h.
For assay [9], the system named is Enterococcus faecalis. In words: Antimicrobial activity against Enterococcus faecalis VRE-309 after 16 hrs by broth microdilution method. As to conditions: VRE-309, 16 h.
Assay [10] relates to Staphylococcus aureus. As to the kind of experiment: Antimicrobial activity against methicillin-resistant Staphylococcus aureus 8-24 clinical isolate after 16 hrs by broth microdilution method. As to conditions: 8-24, 16 h.
Assay [11] has as its system Staphylococcus aureus. In words: Antimicrobial activity against methicillin-resistant Staphylococcus aureus Chaoyang clinical isolate after 16 hrs by broth microdilution method.
For assay [12], the system named is Staphylococcus aureus. As to the kind of experiment: Antimicrobial activity against methicillin-resistant Staphylococcus aureus 8-21 clinical isolate after 16 hrs by broth microdilution method. As to conditions: 8-21, 16 h.
In assay [13] the test system is Staphylococcus aureus. In words: Antimicrobial activity against methicillin-resistant Staphylococcus aureus 309-8 clinical isolate after 16 hrs by broth microdilution method. Conditions: 309-8, 16 h.
In assay [14] the test system is Staphylococcus aureus. In words: Antimicrobial activity against methicillin-resistant Staphylococcus aureus 309-1 clinical isolate after 16 hrs by broth microdilution method. Conditions: 309-1, 16 h.

Converted amounts (≈) assume the structure as drawn. Some results are limits rather than exact numbers.

Consider `O=C1Nc2c(I)cccc2/C1=N/NC(=S)Nc1ccc(Br)cc1`, for which the minimum inhibitory concentration (MIC) in the assay with Bacillus spizizenii is not above 0.78 µg/mL; against Staphylococcus aureus [1], 3.12 µg/mL (≈ 6.23 µM); against Staphylococcus aureus [2], 3.12 µg/mL (≈ 6.23 µM); in the assay with Pseudomonas aeruginosa it was more than 100 µg/mL; in the assay with Staphylococcus aureus [3], 6.25 µg/mL (≈ 12.5 µM); in the assay with Staphylococcus aureus [4], 1.56 µg/mL (≈ 3.11 µM). The MIC is 3.12 µg/mL (≈ 6.23 µM) in the assay on Staphylococcus aureus [5]; 12.5 µg/mL (≈ 24.9 µM) with Enterococcus faecalis [6]; more than 100 µg/mL in the assay on Klebsiella pneumoniae; 1.56 µg/mL (≈ 3.11 µM) in the assay with Staphylococcus aureus [7]; 1.56 µg/mL (≈ 3.11 µM) against Staphylococcus aureus [8]; 3.12 µg/mL (≈ 6.23 µM) with Enterococcus faecalis [9]. For the same molecule, the MIC in the assay on Staphylococcus aureus [10] is 3.12 µg/mL (≈ 6.23 µM); against Staphylococcus aureus [11], 0.78 µg/mL (≈ 1.56 µM); in the assay on Staphylococcus aureus [12] it was 3.12 µg/mL (≈ 6.23 µM); in the assay on Staphylococcus aureus [13], 3.12 µg/mL (≈ 6.23 µM); against Staphylococcus aureus [14] it was 1.56 µg/mL (≈ 3.11 µM).
For the molecule `Cc1cccc(NC(=S)N/N=C2\C(=O)Nc3c(I)cccc32)c1`, the MIC was not above 0.78 µg/mL against Bacillus spizizenii; 3.12 µg/mL (≈ 7.15 µM) in the assay with Staphylococcus aureus [1]; 3.12 µg/mL (≈ 7.15 µM) in the assay with Staphylococcus aureus [2]; more than 100 µg/mL against Pseudomonas aeruginosa; 3.12 µg/mL (≈ 7.15 µM) in the assay with Staphylococcus aureus [3]; 0.78 µg/mL (≈ 1.79 µM) in the assay on Staphylococcus aureus [4]. Further, the minimal inhibitory concentration (MIC) against Staphylococcus aureus [5] is 6.25 µg/mL (≈ 14.3 µM); with Enterococcus faecalis [6] it was 12.5 µg/mL (≈ 28.7 µM); in the assay with Klebsiella pneumoniae, more than 100 µg/mL; against Staphylococcus aureus [7] it was 1.56 µg/mL (≈ 3.58 µM); in the assay with Staphylococcus aureus [8], 1.56 µg/mL (≈ 3.58 µM); against Enterococcus faecalis [9], 3.12 µg/mL (≈ 7.15 µM). In addition, the MIC against Staphylococcus aureus [10] stood at 1.56 µg/mL (≈ 3.58 µM); against Staphylococcus aureus [11] it was 0.78 µg/mL (≈ 1.79 µM); in the assay on Staphylococcus aureus [12], 1.56 µg/mL (≈ 3.58 µM); in the assay on Staphylococcus aureus [13] it was 1.56 µg/mL (≈ 3.58 µM); with Staphylococcus aureus [14], 1.56 µg/mL (≈ 3.58 µM).
Consider `O=C1Nc2ccc(F)cc2/C1=N/NC(=S)Nc1ccc(F)cc1`, for which the minimum inhibitory concentration (MIC) with Bacillus spizizenii, in the assay with Staphylococcus aureus [2] and against Staphylococcus aureus [11] was 25 µg/mL (≈ 75.2 µM) throughout.
As to `O=C(O)c1cn(C2CC2)c2cc(N3CCNCC3)c(F)cc2c1=O` [CIPROFLOXACIN], in the assay with Pseudomonas aeruginosa, the minimum inhibitory concentration (MIC) was 1 µg/mL (≈ 3.02 µM).
As for `O=C1Nc2ccccc2/C1=N/NC(=S)Nc1ccc(F)cc1`, the minimum inhibitory concentration (MIC) came to 1.56 µg/mL (≈ 4.96 µM) with Bacillus spizizenii, 6.25 µg/mL (≈ 19.9 µM) against Staphylococcus aureus [2] and 3.12 µg/mL (≈ 9.93 µM) in the assay on Staphylococcus aureus [11].
The corresponding values for `O=C1Nc2ccc(Br)cc2/C1=N/NC(=S)Nc1ccccc1` are not above 0.78 µg/mL, 6.25 µg/mL (≈ 16.7 µM) and 6.25 µg/mL (≈ 16.7 µM).
The corresponding values for `O=C1Nc2c(Br)cc(Br)cc2/C1=N/NC(=S)Nc1ccc(F)cc1` are 1.56 µg/mL (≈ 3.3 µM), 12.5 µg/mL (≈ 26.5 µM) and 6.25 µg/mL (≈ 13.2 µM).
As to `O=C1Nc2c(F)cccc2/C1=N/NC(=S)Nc1cccc(F)c1`, the MIC in the assay with Bacillus spizizenii is not above 0.78 µg/mL; with Staphylococcus aureus [1] it was 0.78 µg/mL (≈ 2.35 µM); in the assay on Staphylococcus aureus [2], 0.78 µg/mL (≈ 2.35 µM); against Pseudomonas aeruginosa, more than 100 µg/mL; against Staphylococcus aureus [3], 1.56 µg/mL (≈ 4.69 µM); in the assay with Staphylococcus aureus [4], 0.39 µg/mL (≈ 1.17 µM). The MIC in the assay on Staphylococcus aureus [5] is 1.56 µg/mL (≈ 4.69 µM); with Klebsiella pneumoniae, more than 100 µg/mL; against Staphylococcus aureus [7], 0.39 µg/mL (≈ 1.17 µM); in the assay on Staphylococcus aureus [8], 0.39 µg/mL (≈ 1.17 µM); against Enterococcus faecalis [9] it was 1.56 µg/mL (≈ 4.69 µM); against Staphylococcus aureus [10] it was 0.78 µg/mL (≈ 2.35 µM). Besides, the MIC turned out to be 0.39 µg/mL (≈ 1.17 µM) against Staphylococcus aureus [11], 0.78 µg/mL (≈ 2.35 µM) against Staphylococcus aureus [12], 0.78 µg/mL (≈ 2.35 µM) against Staphylococcus aureus [13] and 0.78 µg/mL (≈ 2.35 µM) against Staphylococcus aureus [14].
For `O=C1Nc2c(F)cccc2/C1=N/NC(=S)Nc1ccccc1`, the MIC against Bacillus spizizenii was not above 0.78 µg/mL; in the assay on Staphylococcus aureus [2], 3.12 µg/mL (≈ 9.93 µM); with Staphylococcus aureus [11], 1.56 µg/mL (≈ 4.96 µM).
Turning to `O=C1Nc2c(Br)cc([N+](=O)[O-])cc2/C1=N/NC(=S)Nc1ccc(F)cc1`, the minimum inhibitory concentration (MIC) with Bacillus spizizenii is not above 0.78 µg/mL; with Staphylococcus aureus [2], 1.56 µg/mL (≈ 3.56 µM); against Staphylococcus aureus [11], 3.12 µg/mL (≈ 7.12 µM).
In the same order, the values of `O=C1Nc2ccccc2/C1=N/NC(=S)Nc1ccccc1` are 1.56 µg/mL (≈ 5.26 µM), 3.12 µg/mL (≈ 10.5 µM) and 3.12 µg/mL (≈ 10.5 µM).

For the origin of these results see ChEMBL document CHEMBL3611970, “Synthesis and evaluation of isatin-β-thiosemicarbazones as novel agents against antibiotic-resistant Gram-positive bacterial species” (2015).
